Experimental data taken from PMC8456715 (International journal of biological macromolecules, 2020).

Experiments:
[1] = target: T1, AtMAT2 (Arabidopsis thaliana, UniProt P17562); assay: X-ray crystal structure; type: binding
T1 sequence (P17562 1-392): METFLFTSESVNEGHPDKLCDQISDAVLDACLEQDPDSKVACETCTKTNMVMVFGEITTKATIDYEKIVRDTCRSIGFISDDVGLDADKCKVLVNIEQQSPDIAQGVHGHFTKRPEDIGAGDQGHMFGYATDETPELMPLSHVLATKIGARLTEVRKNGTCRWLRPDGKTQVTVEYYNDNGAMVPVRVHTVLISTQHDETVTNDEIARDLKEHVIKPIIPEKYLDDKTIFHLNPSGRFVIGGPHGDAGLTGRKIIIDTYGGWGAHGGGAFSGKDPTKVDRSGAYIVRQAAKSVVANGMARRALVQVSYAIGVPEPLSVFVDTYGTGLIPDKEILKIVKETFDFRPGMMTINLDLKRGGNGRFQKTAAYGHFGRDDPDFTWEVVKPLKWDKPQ

[2] = target: T2, AtMAT1 (Arabidopsis thaliana, UniProt P23686); assay: isothermal titration calorimetry; type: binding
T2 sequence (P23686 1-393): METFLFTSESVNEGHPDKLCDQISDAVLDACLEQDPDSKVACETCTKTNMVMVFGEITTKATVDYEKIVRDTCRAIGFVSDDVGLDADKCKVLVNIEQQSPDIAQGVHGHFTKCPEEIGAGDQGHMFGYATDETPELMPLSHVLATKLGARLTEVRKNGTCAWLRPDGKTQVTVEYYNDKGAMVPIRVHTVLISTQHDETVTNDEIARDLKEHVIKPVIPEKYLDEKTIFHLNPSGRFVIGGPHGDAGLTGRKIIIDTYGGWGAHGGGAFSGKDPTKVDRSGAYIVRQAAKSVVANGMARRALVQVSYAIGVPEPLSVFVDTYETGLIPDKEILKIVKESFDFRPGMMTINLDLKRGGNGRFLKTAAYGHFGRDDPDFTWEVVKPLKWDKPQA

| Kd [2] [nM] | Compound | X-ray crystal structure (2.00 Å, soaking) [1] |
| --- | --- | --- |
| – | Nc1ncnc2c1ncn2[C@@H]1O[C@H](COP(=O)(O)CP(=O)(O)OP(=O)(O)O)[C@@H](O)[C@H]1O [AMPCPP] | inside the catalytic site both, precatalytic Met and the ATP analogue, AMPCPP, revealed the exact pre-reaction state of the enzyme |
| 654 | NCCCCNCCCN [spermidine] | – |
